Molecular target: T1, 15-PGDH/HPGD (Homo sapiens, UniProt P15428)
T1 construct: purchased R&D System 5660-DH
T1 sequence (P15428 1-266): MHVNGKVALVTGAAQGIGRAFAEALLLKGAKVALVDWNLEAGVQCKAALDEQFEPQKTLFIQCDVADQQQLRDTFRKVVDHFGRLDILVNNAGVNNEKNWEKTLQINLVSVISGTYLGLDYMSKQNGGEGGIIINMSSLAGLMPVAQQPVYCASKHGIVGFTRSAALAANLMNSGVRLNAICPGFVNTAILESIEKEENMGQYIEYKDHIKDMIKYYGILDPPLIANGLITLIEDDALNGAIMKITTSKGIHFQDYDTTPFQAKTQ
Experiment: hPGDH inhibitor screening biochemical assay
Settings: 10 nM enzyme, 15 μM PGE2, 0.25 mM NAD, fluorescence ex/em 340/485 nm
Protocol: A hydroxyprostaglandin dehydrogenase inhibition screening biochemical assay can be performed to assess the synthesized inhibitors provided herein. Provided herein is an exemplary biochemical assay for hPGDH inhibitor screening.
The in vitro biochemical assay can be performed in white, 384 plates in total 20 μl reaction volume consisting of 10 nM of 15-PGDH/HPGD (R&D System #5660-DH), 15 μM Prostaglandin E2 (Sigma, C8 t #P5640-10 MG) and 0.25 mM β-Nicotinamide adenine dinucleotide sodium salt (Sigma, C8 t #N0632-5G) made in reaction buffer (50 mM Tris-HCl, pH 7.5, 0.01% Tween 20) at 10-point dose response curve for test/tool compounds. Briefly, 5 μl (4×) of compounds solution and 5 μl (final concentration, 10 nM) of enzyme solution is added to white 384 well plates and incubated for 10 mins at 37° C. 5 μl (4×) of […] and 5 μl (4×) of β-Nicotinamide adenine dinucleotide sodium salt is added to the wells and incubated for 10 mins at room temperature. Fluorescence is recorded at ex/em=340 nm/485 nm. The percentage (%) inhibition of enzyme activity was determined relative to positive control (1% DMSO) and IC50 was calculated using GraphPad prism software (four parameter-variable slope equation).

IC50	Structure (SMILES)
< 100 nM	O=C(c1cnc2c(ccn2-c2ccc(-c3nnc[nH]3)nc2)c1)N1CCC2(CC1)CC2 [Compound B-56]
< 100 nM	O=C(c1cnc2c(ccn2-c2ccc(-c3nnc[nH]3)cc2)c1)N1CCC[C@H](C(F)(F)F)C1 [Compound B-229]
< 100 nM	C[C@H]1CCN(C(=O)c2cnc3c(ccn3-c3ccc(-c4ncn[nH]4)nc3)c2)C1 [Compound B-41]
< 100 nM	CO[C@@H]1CCCN(C(=O)c2cnc3c(ccn3-c3ccc(-c4nnc[nH]4)c(F)c3)c2)C1 [Compound B-246]
< 100 nM	N#Cc1ccc(-n2ccc3cc(C(=O)N4CC[C@H](F)C4)cnc32)cc1 [Compound B-127]
< 100 nM	O=C(c1cnc2c(ccn2-c2cccc(-c3ncc[nH]3)c2)c1)N1CCC[C@@H](O)C1 [Compound B-269]
< 100 nM	CC1CCCN(C(=O)c2cnc3c(ccn3-c3ccc(C#N)cc3)c2)C1 (stereo in doubt) [Compound B-10, (R)-4-(5-(3-methylpiperidine-1-carbonyl)-1H-pyrrolo[2,3-b1 pyridin-1-yl)benzonitrile]
< 100 nM	C[C@H]1CCCN(C(=O)c2cnc3c(ccn3-c3ccc(N4CCNC4=O)nc3)c2)C1 [Compound B-30]
< 100 nM	C[C@@H]1CCCN(C(=O)c2cnc3c(ccn3-c3ccc(C(=O)O)cc3)c2)C1 [Compound B-3]
< 100 nM	CC1CN(C(=O)c2cnc3c(ccn3-c3ccc(-c4ncn[nH]4)nc3)c2)CC(C)O1 (stereo not shown) [Compound B-47, (1-(6-(1H-1,2,4-triazol-5-yl)pyridin-3-yl)-1H-pyrrolo[2,3-b]pyridin-5-yl)(2,6-dimethylmorpholino) methanone]
< 100 nM	CC1(C)CCN(C(=O)c2cnc3c(ccn3-c3ccc(-c4ncn[nH]4)nc3)c2)C1 [Compound B-42]
< 100 nM	O=C(c1cnc2c(ccn2-c2ccc(-c3ncn[nH]3)nc2)c1)N1CCC[C@H](O)C1 [Compound B-39]
< 100 nM	O=C(c1cnc2c(ccn2-c2cnc(-c3ncn[nH]3)nc2)c1)N1CCC(F)(F)CC1 [Compound B-45, (1-(2-(1H-1,2,4-triazol-5-yl)pyrimidin-5-yl)-1H-pyrrolo[2,3-b]pyridin-5-yl)(4,4-difluoropiperidin-1-yl)methanone]
< 100 nM	Cc1cnc(-c2ccc(-n3ccc4cc(C(=O)N5CCC(F)(F)CC5)cnc43)cn2)[nH]1 [Compound B-17]
< 100 nM	Cc1nnc(-c2ccc(-n3ccc4cc(C(=O)N5CCC(F)(F)CC5)cnc43)cn2)[nH]1 [Compound B-21, (4,4-difluoropiperidin-1-yl)(1-(6-(5-methyl-4H-1,2,4-triazol-3-yl)pyridin-3-yl)-1H-pyrrolo[2,3-b]pyridin-5-yl)methanone]
< 100 nM	O=C(c1cnc2c(ccn2-c2ccc(-c3nnc[nH]3)cc2)c1)N1CCC[C@@H](C(F)(F)F)C1 [Compound B-228]
< 100 nM	O=C(c1cnc2c(ccn2-c2cccc(-c3nnc[nH]3)c2)c1)N1CCC[C@H](O)C1 [Compound B-260]
< 100 nM	CO[C@H]1CCCN(C(=O)c2cnc3c(ccn3-c3ccc(-c4nnc[nH]4)c(Cl)c3)c2)C1 [Compound B-252]
100 to 1000 nM	O=C(c1cnc2c(ccn2-c2ccc(-c3ncn[nH]3)nc2)c1)N1CC[C@H](O)C1 [Compound B-43]

Further lines, the molecule ahead of its results:

Structure (SMILES)	IC50
O=C(c1cnc2c(ccn2-c2ccc(-c3cn[nH]c3)cc2)c1)N1CCC(F)(F)CC1 [Compound B-233]	< 100 nM
Nc1nnc(-c2ccc(-n3ccc4cc(C(=O)N5CCCC(F)(F)C5)cnc43)cc2)[nH]1 [Compound B-54]	< 100 nM
CCOC(=O)Nc1cncc(-n2ccc3cc(C(=O)N4CCCC(F)(F)C4)cnc32)c1 [Compound B-55]	< 100 nM
O=C(c1cnc2c(ccn2-c2cnn(CC(F)F)c2)c1)N1CCC(F)(F)CC1 [Compound B-235]	100 to 1000 nM
O=C(c1cnc2c(ccn2-c2ccc(-c3nnc[nH]3)cc2F)c1)N1CCC(F)(F)CC1 [Compound B-267]	< 100 nM
O=C(c1cnc2c(ccn2-c2ccc(-c3nc[nH]n3)cn2)c1)N1CCC(F)(F)CC1 [Compound B-34, (1-(5-(1H-1,2,4-triazol-3-yl)pyridin-2-yl)-1H-pyrrolo[2,3-b]pyridin-5-yl)(4,4-difluoropiperidin-1-yl)methanone]	< 100 nM
CCOC(=O)Nc1cncc(-n2ccc3cc([S+]([O-])C4CCCC4)cnc32)c1 (stereo not shown) [Compound B-316]	< 100 nM
COc1ccc(Cn2cc(-c3ccc(-n4ccc5cc(C(=O)N6CCC(F)(F)CC6)cnc54)cn3)nc2C)cc1 [Compound B-24, (4,4-difluoropiperidin-1-yl) (1-(6-(1-(4-methozybenzyl)-2-methyl-1H-imidazol-4-yl)pyridin-3-yl)-1H-pyrrolo[2,3-b]pyridin-5-yl)methanone]	< 100 nM
CC1(O)CCCN(C(=O)c2cnc3c(ccn3-c3cc(F)cc(-c4nnc[nH]4)c3)c2)C1 (stereo not shown) [Compound B-241]	< 100 nM
CC(C)OC(=O)Nc1cncc(-n2ccc3cc(C(=O)N4CCSCC4)cnc32)c1 [Compound B-256]	< 100 nM
N=C(NN)c1ccc(-n2ccc3cc(C(=O)N4CCC(F)(F)CC4)cnc32)cn1 [Compound B-48, 5-(5-(4,4-difluoropiperidine-1-carbonyl)-1H-pyrrolo[2,3-b]pyridin-1-yl) picolinimidohydrazide]	< 100 nM
C[C@]1(O)CCCN(C(=O)c2cnc3c(ccn3-c3cccc(-c4nnc[nH]4)c3)c2)C1 [Compound B-249]	< 100 nM
O=C(c1cnc2c(ccn2-c2cnn(CC(F)(F)F)c2)c1)N1CCCC(F)(F)C1 [Compound B-57]	< 100 nM
CCOC(=O)Nc1cncc(-n2ccc3cc(C(=O)N4CCSCC4)cnc32)c1 [Compound B-230]	< 100 nM
COc1cc(-n2ccc3cc(C(=O)N4CCC(F)(F)CC4)cnc32)ccc1-c1nnc[nH]1 [Compound B-266]	< 100 nM
NC(=O)c1ccc(-n2ccc3cc(C(=O)N4CCC(F)(F)CC4)cnc32)cn1 [Compound B-104]	< 100 nM
CCOC(=O)Nc1cncc(-n2ccc3cc(C(=O)N4CCCC(C(F)(F)F)C4)cnc32)c1 (stereo not shown) [Compound B-238]	< 100 nM
O=C(c1cnc2c(ccn2-c2ccc(-c3nnc[nH]3)cc2)c1)N1CCSCC1 [Compound B-227]	< 100 nM
Nc1nnc(-c2cccc(-n3ccc4cc(C(=O)N5CCC(F)(F)CC5)cnc43)c2)[nH]1 [Compound B-71]	< 100 nM
Nc1nc2ccc(-n3ccc4cc(C(=O)N5CCC(F)(F)CC5)cnc43)cn2n1 [Compound B-12]	< 100 nM
O=C(c1cnc2c(ccn2-c2cc(Cl)cc(-c3nnc[nH]3)c2)c1)N1CC[S+]([O-])CC1 [Compound B-257]	< 100 nM
CC1(O)CCCN(C(=O)c2cnc3c(ccn3-c3cc(Cl)cc(-c4nnc[nH]4)c3)c2)C1 (stereo not shown) [Compound B-240]	< 100 nM
O=C(c1cnc2c(ccn2-c2ccc(-c3nnc[nH]3)c(Cl)c2)c1)N1CCSCC1 [Compound B-253]	< 100 nM
O=C(c1cnc2c(ccn2-c2cc(Cl)cc(-c3nnc[nH]3)c2)c1)N1CCSCC1 [Compound B-251]	< 100 nM
O=C(c1cnc2c(ccn2-c2ccc(N3CCN(c4ccc(-n5ccc6cc(C(=O)N7CCC(F)(F)CC7)cnc65)cn4)C3=O)nc2)c1)N1CCC(F)(F)CC1 [Compound B-13]	100 to 1000 nM
C[C@@H]1CN(C(=O)c2cnc3c(ccn3-c3ccc(N4CCOC4=O)nc3)c2)CCC1(F)F [Compound B-75]	< 100 nM
C[C@]1(O)CCCN(C(=O)c2cnc3c(ccn3-c3ccc(-c4nnc[nH]4)cc3)c2)C1 [Compound B-248]	< 100 nM
